Data as given in US20030215817A1, “Modulation of gene expression in formation of fatty atherosclerotic lesions” (priority 2003, published 2003).
Structures can show the parent of a compound that is named as a salt.

Key:
Assay type in all cases: in vivo, rabbit
[1] = tested on: REC1_1 (MspI AAGC 288) mRNA, TYRO protein tyrosine kinase binding p; experiment: TOGA analysis, REC1_1
Experimental: (§1) To perform the studies, New Zealand male rabbits weighing 2.0-2.5 kg (Charles River, Calco, Italy) were used. The rabbits were divided into three groups and maintained in identical experimental conditions: (1) control group (n=15); rabbits fed a cholesterol-rich diet; (2) lercanidipine-treated group (n=15); rabbits fed a cholesterol-rich diet and also treated with lercanidipine (3 mg/kg/week); and (3) (R)-lercanidipine-treated group (n=5); rabbits fed a cholesterol-rich diet and also treated with the (R)-enantiomer of lercanidipine (3 mg/kg/week). After a 2 week period of subcutaneous, once a week, pretreatment with 3 mg/kg/week of lercanidipine or (R)-lercanidipine, the rabbits received a daily cholesterol supplement for up to 8 weeks or 2 weeks, respectively. In the following examples, use of the term “lercanidipine” refers to the racemic mixture of lercanidipine hydrochloride, whereas “(R)-lercanidipine” refers to the (R)-enantiomer of lercanidipine hydrochloride.
(§2) The mRNA from the above-described groups was isolated from aorta at different time points, resulting in the following mRNA samples: (1) Day 0 Control=no administered cholesterol, no lercanidipine; (2) Day 0+lercanidipine=no administered cholesterol, treatment with lercanipidine (2 weeks; 3 mg/kg/week); (3) Day 14 Control=cholesterol diet for two weeks, no lercanidipine; (4) Day 14+lercanidipine=cholesterol diet for two weeks, treatment with lercanidipine (four weeks; 3 mg/kg/week); (5) Week 8 Control=cholesterol diet for 8 weeks, no lercanidipine; and (6) Week 8+lercanidipine=cholesterol diet for 8 weeks, treatment with lercanidipine (10 weeks; 3 mg/kg/week). In addition, Day 14+(R)-lercanidipine mRNA samples were prepared from rabbits given a cholesterol diet for two weeks and treated with 3 mg/kg/week (R)-lercanidipine for four weeks.
(§3) Aorta mRNAs were prepared in the following manner. First, the aortas from each experimental group were retrieved and shredded using a polytron homogenizer. The samples were further homogenized using a teflon pestle, after which the cellular debris, nuclei, and blood cells were pelleted by centrifugation. The supernatants were extracted twice with phenol-chloroform-isoamyl alcohol and once with chloroform-isoamyl alcohol. RNA was then precipitated from the aqueous phase with ethanol. The poly A+ mRNA was prepared using standard methods of polyA selection known in the art (Schriber et al., J. Mol. Biol., 142:93-116 (1980)).
(§4) The isolated mRNA was analyzed using a method of simultaneous sequence-specific identification of mRNAs known as TOGA, described in U.S. Pat. No. 5,459,037 and U.S. Pat. No. 5,807,680, hereby incorporated herein by reference. In a preferred embodiment, the TOGA method further comprised an additional PCR step performed using a mixture of four 5′ PCR primers and cDNA templates prepared from a population of antisense cRNAs. A final PCR step that used a mixture of 256 5′ PCR primers produced PCR products that were cDNA fragments that corresponded to the 3′-region of the starting mRNA population. The produced PCR products were then identified by: (a) the initial 5′ sequence comprising the sequence remainder of the recognition site of the restriction endonuclease used to cut and isolate the 3′ region plus the sequence of the preferably four parsing bases immediately 3′ to the remainder of the recognition site, preferably the sequence of the entire fragment; and (b) the length of the fragment. These two parameters, sequence and fragment length, were used to compare the obtained PCR products to a database of known polynucleotide sequences. Since the length of the obtained PCR products includes known vector sequences at the 5′ and 3′ ends of the insert, the sequence of the insert provided in the sequence listing is shorter than the fragment length that forms part of the digital address.
(§5) The method yields Digital Sequence Tags (DSTs), that is, polynucleotides that are expressed sequence tags of the 3′ end of mRNAs. […]

[2] = tested on: REC1_2 (MspI AATC 108) mRNA; experiment: TOGA analysis, REC1_2
Experimental: as §1, §2, §3
as §4, with “These two parameters, sequence and fragment length, were used to compare the obtained PCR products to a database of known polynucleotide sequences. Since the length of the obtained PCR products includes known vector sequences at the 5′ and 3′ ends of the insert, the sequence of the insert provided in the sequence listing is shorter than the fragment length that forms part of the digital address.” left out

[3] = tested on: REC1_8 (MspI CCCG 243) mRNA; experiment: TOGA analysis, REC1_8
Experimental: as §1, §2, §3
as §4, with “These two parameters, sequence and fragment length, were used to compare the obtained PCR products to a database of known polynucleotide sequences. Since the length of the obtained PCR products includes known vector sequences at the 5′ and 3′ ends of the insert, the sequence of the insert provided in the sequence listing is shorter than the fragment length that forms part of the digital address.” left out

[4] = tested on: REC1_7 (MspI CACA 282) mRNA; experiment: TOGA analysis, REC1_7
Experimental: as §1, §2, §3, §4, §5

REC1_19 (TGTT 393) mRNA = experiment: TOGA analysis, REC1_19
Experimental: as §1, §2, §3
as §4, with “These two parameters, sequence and fragment length, were used to compare the obtained PCR products to a database of known polynucleotide sequences. Since the length of the obtained PCR products includes known vector sequences at the 5′ and 3′ ends of the insert, the sequence of the insert provided in the sequence listing is shorter than the fragment length that forms part of the digital address.” left out

[5] = tested on: REC1_22 (digital address TGGG 164) mRNA; experiment: TOGA analysis, REC1_22
Experimental: as §1, §2, §3, §4, §5

[6] = tested on: REC1_24 (digital address CCGG 232) mRNA; experiment: TOGA analysis, REC1_24
Experimental: as §1, §2, §3, §4, §5

[7] = tested on: REC1_28 (digital address CGGT 101) mRNA, calgizzarin; experiment: TOGA analysis, REC1_28
Experimental: as §1, §2, §3, §4, §5

[8] = tested on: REC1_31 (digital address TGCA 210) mRNA, mitochondrial genome; experiment: TOGA analysis, REC1_31
Experimental: as §1, §2, §3, §4, §5

[9] = tested on: REC1_33 (digital address CCGA 96) mRNA, as1_casein gene; experiment: TOGA analysis, REC1_33
Experimental: as §1, §2, §3, §4, §5

[10] = tested on: REC1_34 (digital address CGGT 209) mRNA; experiment: TOGA analysis, REC1_34
Experimental: as §1, §2, §3, §4, §5

[11] = tested on: REC1_37 (digital address TTCA 264) mRNA, ribosomal protein L15; experiment: TOGA analysis, REC1_37
Experimental: as §1, §2, §3, §4, §5

[12] = TOGA, hypercholesterolemic plus lercanidipine racemate, eight weeks, H2 (normocholesterolemic)=1.0
[13] = aorta at day 0: no cholesterol, 3 mg/kg/week for 2 weeks
[14] = aorta at day 14 of cholesterol administration, 3 mg/kg/week for 4 weeks
[15] = aorta at day 14 of cholesterol diet, 3 mg/kg/week for 4 weeks
[16] = aorta at day 14 of cholesterol, 3 mg/kg/week for 4 weeks

COC(=O)C1=C(C)NC(C)=C(C(=O)OC(C)(C)CN(C)CCC(c2ccccc2)c2ccccc2)C1c1cccc([N+](=O)[O-])c1 (racemic) [lercanidipine, lercanidipine hydrochloride]
level of gene expression (TOGA), 8 Week hypercholesterol + Lercanidipine ([1]; REC1_1, AAGC 288, rabbit aorta, 8 weeks cholesterol + lercanidipine): 1733
level of gene expression (TOGA), 14 Day hypercholesterol + Lercanidipine ([1]; REC1_1, AAGC 288, rabbit aorta, 14 days cholesterol + lercanidipine): 753
level of gene expression (TOGA), Normal + Lercanidipine ([1]; REC1_1, AAGC 288, rabbit aorta, no cholesterol, lercanidipine): 215
Relative Abundance Rec1_1, TOGA, F [1, 12]: 6.9
level of gene expression of REC1_1 (TOGA) ([1]; aorta at 8 weeks of cholesterol administration, 3 mg/kg/week for 10 weeks): 1733
level of gene expression of REC1_1 (TOGA) [1, 13]: 215
level of gene expression of REC1_1 (TOGA) ([1]; aorta at day 14 of cholesterol treatment, 3 mg/kg/week for 4 weeks): 753
level of gene expression (TOGA), 8 Week hypercholesterol + Lercanidipine ([2]; REC1_2, AATC 108, rabbit aorta, 8 weeks cholesterol + lercanidipine): 1143
level of gene expression (TOGA), 14 Day hypercholesterol + Lercanidipine ([2]; REC1_2, AATC 108, rabbit aorta, 14 days cholesterol + lercanidipine): 545
level of gene expression (TOGA), Normal + Lercanidipine ([2]; REC1_2, AATC 108, rabbit aorta, no cholesterol, lercanidipine): 301
Relative Abundance Rec1_2, TOGA, F [2, 12]: 6.5
level of gene expression, 8 Week hypercholesterol + Lercanidipine ([3]; REC1_8 CCCG 243, rabbit aorta, 8 weeks cholesterol): 1136
level of gene expression, 14 Day hypercholesterol + Lercanidipine ([3]; REC1_8 CCCG 243, rabbit aorta, 14 days cholesterol): 373
level of gene expression, Normal + Lercanidipine ([3]; REC1_8 CCCG 243, rabbit aorta, no cholesterol): 163
Relative Abundance Rec1_8, TOGA, F [3, 12]: 13.1
level of gene expression (TOGA), 8 Week hypercholesterol + Lercanidipine ([4]; REC1_7, CACA 282, rabbit aorta, 8 weeks cholesterol + lercanidipine): 159
level of gene expression (TOGA), 14 Day hypercholesterol + Lercanidipine ([4]; REC1_7, CACA 282, rabbit aorta, 14 days cholesterol + lercanidipine): 417
level of gene expression (TOGA), Normal + Lercanidipine ([4]; REC1_7, CACA 282, rabbit aorta, no cholesterol, lercanidipine): 863
Relative Abundance Rec1_7, TOGA, F [4, 12]: 0.2
level of gene expression of REC1_7 (TOGA) [4, 13]: 863
level of gene expression of REC1_7 (TOGA) [4, 14]: 417
level of gene expression of REC1_7 (TOGA) ([4]; aorta at week 8 of cholesterol administration, 3 mg/kg/week for 10 weeks): 159
level of gene expression, 8 Week hypercholesterol + Lercanidipine (REC1_19 (TGTT 393) mRNA; REC1_19 TGTT 393, rabbit aorta, cholesterol 8 weeks): 130
level of gene expression, 14 Day hypercholesterol + Lercanidipine (REC1_19 (TGTT 393) mRNA; REC1_19 TGTT 393, rabbit aorta, cholesterol 14 days): 373
level of gene expression, Normal + Lercanidipine (REC1_19 (TGTT 393) mRNA; REC1_19 TGTT 393, rabbit aorta, no cholesterol): 569
Relative Abundance Rec1_19, TOGA, F (REC1_19 (TGTT 393) mRNA; [12]): 0.2
level of gene expression, 8 Week hypercholesterol + Lercanidipine ([5]; REC1_22 TGGG 164, rabbit aorta, cholesterol 8 weeks): 122
level of gene expression, 14 Day hypercholesterol + Lercanidipine ([5]; REC1_22 TGGG 164, rabbit aorta, cholesterol 14 days): 194
level of gene expression, Normal + Lercanidipine ([5]; REC1_22 TGGG 164, rabbit aorta, no cholesterol): 87
level of gene expression of REC1_22 (TOGA) [5, 13]: 87
level of gene expression of REC1_22 (TOGA) [5, 14]: 194
level of gene expression, 8 Week hypercholesterol + Lercanidipine ([6]; REC1_24 CCGG 232, rabbit aorta, 8 weeks cholesterol): 117
level of gene expression, 14 Day hypercholesterol + Lercanidipine ([6]; REC1_24 CCGG 232, rabbit aorta, 14 days cholesterol): 104
level of gene expression, Normal + Lercanidipine ([6]; REC1_24 CCGG 232, rabbit aorta, no cholesterol): 122
level of gene expression of REC1_24 (TOGA) [6, 13]: 122
level of gene expression of REC1_24 (TOGA) [6, 15]: 104
level of gene expression, 8 Week hypercholesterol + Lercanidipine ([7]; REC1_28 CGGT 101, rabbit aorta, 8 weeks cholesterol): 176
level of gene expression, 14 Day hypercholesterol + Lercanidipine ([7]; REC1_28 CGGT 101, rabbit aorta, 14 days cholesterol): 189
level of gene expression, Normal + Lercanidipine ([7]; REC1_28 CGGT 101, rabbit aorta, no cholesterol): 229
level of gene expression of REC1_28 (TOGA) [7, 13]: 229
level of gene expression of REC1_28 (TOGA) [7, 15]: 189
level of gene expression, 8 Week hypercholesterol + Lercanidipine ([8]; REC1_31 TGCA 210, rabbit aorta, cholesterol 8 weeks): 245
level of gene expression, 14 Day hypercholesterol + Lercanidipine ([8]; REC1_31 TGCA 210, rabbit aorta, cholesterol 14 days): 619
level of gene expression, Normal + Lercanidipine ([8]; REC1_31 TGCA 210, rabbit aorta, no cholesterol): 464
level of gene expression of REC1_31 (TOGA) [8, 13]: 464
level of gene expression of REC1_31 (TOGA) [8, 14]: 619
level of gene expression, 8 Week hypercholesterol + Lercanidipine ([9]; REC1_33 CCGA 96, rabbit aorta, 8 weeks cholesterol): 156
level of gene expression, 14 Day hypercholesterol + Lercanidipine ([9]; REC1_33 CCGA 96, rabbit aorta, 14 days cholesterol): 842
level of gene expression, Normal + Lercanidipine ([9]; REC1_33 CCGA 96, rabbit aorta, no cholesterol): 1094
level of gene expression of REC1_33 (TOGA) [9, 13]: 1094
level of gene expression of REC1_33 (TOGA) [9, 14]: 842
level of gene expression, 8 Week hypercholesterol + Lercanidipine ([10]; REC1_34 CGGT 209, rabbit aorta, 8 weeks cholesterol): 203
level of gene expression, 14 Day hypercholesterol + Lercanidipine ([10]; REC1_34 CGGT 209, rabbit aorta, 14 days cholesterol): 331
level of gene expression, Normal + Lercanidipine ([10]; REC1_34 CGGT 209, rabbit aorta, no cholesterol): 100
level of gene expression of REC1_34 (TOGA) [10, 13]: 100
level of gene expression of REC1_34 (TOGA) [10, 16]: 331
level of gene expression, 8 Week hypercholesterol + Lercanidipine ([11]; REC1_37 TTCA 264, rabbit aorta, cholesterol 8 weeks): 136
level of gene expression, 14 Day hypercholesterol + Lercanidipine ([11]; REC1_37 TTCA 264, rabbit aorta, cholesterol 14 days): 915
level of gene expression, Normal + Lercanidipine ([11]; REC1_37 TTCA 264, rabbit aorta, no cholesterol): 605
level of gene expression of REC1_37 (TOGA) [11, 16]: 915
level of gene expression of REC1_37 (TOGA) ([11]; aorta at week 8 of cholesterol, 3 mg/kg/week for 10 weeks): 136
